Holding throughout (format): cell-based, human
For test [1], the system named is MUTYH-deficient (ΔMUTYH) cells. The test can be described thus: Survival of MUTYH-deficient cells after UV irradiation. As to conditions: pre-incubation with 0.5 mM acetohexamide; 3 days (FIG. 3B). The source says:
FIG. 3. Loss of MUTYH mimics acetohexamide function A. Bubble plot displaying the percentage of rescue, defined as the difference in survival of a given cell line treated with acetohexamide compared to untreated, following UV irradiation. The light grey, dark grey bubbles highlight ΔMUTYH, ΔXPA […], and black bubbles indicate the rest of the knockout cell lines and WT HAP1. The size of the bubbles indicates the significance as log10 (p-value). BER: base excision repair; NER: nucleotide excision repair; DSBR; double-strand break repair; MMR: mis-match repair; FA: Fanconi aneamia; DR; direct reversal; TLS; translesion synthesis. B. Survival of WT and MUTYH-deficient (ΔMUTYH) cells with or without 0.5 mM acetohexamide treatment, followed by UV irradiation, as assessed after 3 days using CellTitre-Glo. Loss of MUTYH protein was confirmed by immunoblotting using an anti-MUTYH antibody. ACTIN was used as a loading control. C. Deletion of MUTYH in WT HAP1 or an XPA-deficient background was confirmed by immunoblotting using an anti-MUTYH antibody. TUBULIN was used as a loading control. […]
For UV irradiation, cells were washed with PBS, trypsinized, counted and distributed in equal number then irradiated with different doses of UV as indicated. […] After 72 hours, survival was measured using Cell Titer-Glo (Promega). […]

The test system of test [2] is XPA-deficient HAP1 cells (ΔXPA). The test can be described thus: High-throughput drug screen for agents that alleviate UV sensitivity of NER-deficient cells. As to conditions: drug at five times maximal plasma concentration for 24 hours, then UV; viability after 3 days. The source says:
An in-house drug library of around 300 compounds representing all structurally distinct Food and Drug Administration (FDA) approved compounds was used to allow for potential drug repurposing. First, an NER-deficient cell line was generated by making a frameshift mutation in XPA, one of the central components of NER that functions in both TC-NER and GG-NER, utilizing CRISPR-Cas9 in the human near haploid cell line HAP1 (denoted ΔXPA) (FIG. 5A). […] Next, ΔXPA and wildtype cells were exposed to the drug library (with each drug used at five times maximal plasma concentration) for 24 hours, followed by UV exposure (at a dose selected to kill ΔXPA cells but not wildtype cells) (FIGS. 1A and 5D). The compounds were scored based on their efficiency to improve cellular survival of ΔXPA cells, compared to wildtype cells (FIG. 1B). […]
Fifty nL of compound per well was transferred into 384-well plates (Corning 3712) from DMSO stock plates using acoustic transfer (Labcyte Echo 520). […] Three days later cell viability was determined using Cell Titer-Glo (Promega). […] For data analysis, the percentage of control was calculated and the signal of the DMSO irradiated sample was used to set values to 0% while the DMSO non-irradiated sample was used to set the values to 100%. […]

For the next test, the system named is CPDs in XPA^Δ/Δ cells. The test can be described thus: Immunofluorescence for cyclobutane pyrimidine dimers. As to conditions: 0.5 mM for 6 hours. The protocol:
A. Dose-response curve of WT and ΔXPA cells treated with or without 0.5 mM acetohexamide for 6 hours, followed by illudin S treatment. Survival was assessed after 3 days using CellTiter-Glo. B. Colony formation of WT fibroblasts (BJ) and XPA-patient derived fibroblasts (XPA^Δ/Δ) treated with or without 0.5 mM acetohexamide for 6 hours, followed by UV irradiation (as indicated) and then kept in culture for 10 days. C. WT BJ and XPA^Δ/Δ fibroblastoid cells were treated with 0.5 mM acetohexamide for 6 hours, irradiated with 15 J/M^2 and then fixed and immunostained with an anti-cyclobutane pyrimidine dimer (CPD) antibody at the indicated times. Nuclear DNA was counterstained with DAPI. Scale bar, 10 μm. D. Scatter plot displaying the quantification of CPD intensities per nucleus of WT and XPA^Δ/Δ cells in the presence or absence of 0.5 mM acetohexamide, of more than 100 cells. Red lines within each column represent median intensities. A.u.=arbitrary unit.
For measurement of cyclobutane pyrimidine dimers (CPDs), cells were seeded onto coverslips (VWR) in 5 cm dishes. On the following day, cells were treated as indicated. Next, they were washed twice with PBS and fixed with 4% paraformaldehyde (PFA) for 10 minutes at room temperature (RT), then permeabilized with 0.5% Triton X-100 in PBS for 5 minntes at RT. […] Quantification was performed using CellProfiler.

On to `CC(=O)c1ccc(S(=O)(=O)NC(=O)NC2CCCCC2)cc1` [acetohexamide], for which, in test [1], the “survival of ΔMUTYH cells after UV” value was “did not have a noticeable effect on survival”. Also, the “correction of survival of ΔXPA cells compared to wildtype cells” value in test [2] is reported as above 40%. Also, the “initial amount of CPDs” value with CPDs in XPA^Δ/Δ cells (15 J/M^2 (FIG. 2C-D)) was “did not affect the initial amount of CPDs”. In addition, the “clearance of CPDs” value with CPDs in XPA^Δ/Δ cells (XPA^Δ/Δ cells, 15 J/M^2, 24 hours post UV (FIG. 2C-D)) is on record as “led to the clearance of CPDs in XPA^Δ/Δ cells”.
